A melting point compilation (Tetko et al.; mined from patent text by program, amines drawn as free bases though some values may be those of a salt)
Counter-ions that a name gives are not always drawn. Residues, ends and D or L forms follow the SMILES beside them. *: point of attachment. Tfa = O=C(C(F)(F)F)*

melting point	Structure (SMILES)
114 °C	CCOC(=O)C(=O)Nc1cc(C)ccc1[N+](=O)[O-]
113 to 115 °C	CC(C)=CCOc1c(-c2ccc(S(C)(=O)=O)cc2)cnn(-c2cccc(Cl)c2)c1=O
100 to 102 °C	Cc1sc2ccc(Cl)cc2c1C1=NCCO1
201 to 203 °C	COc1cc(Nc2nc3cccc(-c4cncc5ccccc45)c3o2)cc(OC)c1OC
98 °C	CCCCC[C@H]1CC[C@H](c2ncc([C@H]3CC[C@H](CCC)CC3)cn2)CC1
80.3 to 87.7 °C	Cc1cc(C)c(N2CCCc3c2nn(C)c3C(=O)N2CCc3ccccc3C2)c(C)c1
169 to 190 °C	O=C(C=Cc1ccc(Br)cc1)c1cc(Br)ccc1[N+](=O)[O-]
164 to 165 °C	C[C@@H](O[C@H]1CCCN(Cc2n[nH]c(=O)[nH]2)[C@H]1c1ccccc1)c1cccc(Cl)c1
73 to 74 °C	CCCCCC(O)C=Cc1scnc1CCCCCCC(=O)O (stereo not drawn)
127 °C	C=C(C)C(=O)c1ccc2c(c1)oc(=O)n2C
74 to 76 °C	O=C(O)CCNC(=O)CCCCC1CCSS1 (stereo not drawn)
79 °C	Cc1c(CCCCCCCCCCCC(=O)O)cccc1C(=O)c1ccc(Cl)cc1
125 to 129 °C	CC(C)(C)OC(=O)NC(CCO)C(=O)OC(c1ccccc1)c1ccccc1 (racemic)
108 °C	CCOc1ccc(NC(=S)SC)cc1F
139 to 143 °C	O=C(O)C1=Cc2cc(SC(F)(F)F)ccc2OC1C(F)(F)F (stereo not drawn)
206 to 212 °C	CNC1CN(c2nc3c(cc2F)c(=O)c(C(=O)O)cn3C2CC2)C1
132 to 134 °C	COc1ccc(C(NCCC(c2ccccc2)c2ccccc2)c2cccc(Nc3c(N)c(=O)c3=O)c2)cc1 (stereo not drawn)
53 to 55 °C	CCCCCCCCCCCCCCCCCCOc1cc(OCC(=O)OC)cc(C(=O)N(CC(=O)OC)CC(=O)OC)c1
58.7 °C	COc1cc(C(C)=O)ccc1OC(C)=O
85 to 96 °C	O=C(O)C1CCc2ccccc2N1C(=O)CS (stereo not drawn)
245 to 247 °C	CC(C)(CN)c1ccc(C(=O)Nc2cn3cc(Cl)ccc3n2)cc1
204 to 206 °C	O=C1C=C(c2ccccc2)NCCN1
100 to 101 °C	CCc1cc([N+](=O)[O-])c(N)cc1Cl
182 to 183 °C	O=C(Nc1cn(C2CCCCO2)nc1C(=O)NCCNc1ccccc1)c1ccccn1 (stereo not drawn)

melting point	Structure (SMILES)
132 °C	CCOC(=O)CN1C(=O)N(c2ccc(C)cc2)C2(CCCCC2)C1=O
294 to 296 °C	CC1(C)CCC(C)(C)c2cc3[nH]c(-c4ccc(C(=O)O)cc4)cc3cc21
53 to 55 °C	OCCN(Cc1ccc2ccccc2c1)C1(c2nccc3sccc23)CCNCC1
94 to 95 °C	N#CC(=CNC1CC1)C(=O)c1cc(F)c(Cl)cc1Cl
208 to 210 °C	COc1ccc2c(c1)c(CC(=O)N(O)C1CCCCC1)c(C)n2C(=O)c1ccc(Cl)cc1
86.5 to 88.5 °C	CN(C)C=C(C=O)c1ccccc1Cl
185 °C	O=C(O)CNC(=O)CNC(=O)C(F)(F)F (Tfa-Gly-Gly-OH)
176 to 177 °C	CCCc1ccc2nc(SCC)c(S(N)(=O)=O)n2n1
131 °C	Cc1cccc(-c2ccccc2NC(=N)N2CCCCC2)c1
153 to 154 °C	O=C1N=C(N2CCCC2)SC1Cc1cccc(-c2ccc(O)c(C34CC5CC(CC(C5)C3)C4)c2)c1 (stereo not drawn)
184 °C	COc1ccc(CN(C)CCOc2ccc(NC(=O)c3cccc4c(=O)c5cccc(OC)c5[nH]c34)cc2)cc1OC
159 °C	CN(C)C(=O)COc1ccc2c(-c3ccc(Br)cc3)nsc2c1
137 to 138 °C	C=C(CC(=O)c1ccc(C)cc1)C(=O)O
72 to 74 °C	O=C1NC(=O)C(Cc2ccc(OC3CCN(C(=O)OCc4ccccc4)CC3)cc2)S1 (stereo not drawn)
244 to 248 °C	O=C(O)c1c2n(c3cc(N4CCOCC4)c(F)cc3c1=O)CS2
211 to 213 °C	N#Cc1cnc2cnc(F)cc2c1Nc1ccc(Oc2ccccc2)cc1
163 to 166 °C	CS(=O)(=O)Nc1cc([C@@H](O)CNC2CCN(c3ccc(S(=O)(=O)N(CC(=O)O)CC(=O)O)cc3)CC2)ccc1O
97 to 99 °C	N#Cc1c(F)cccc1Nc1ccccc1
209 to 211 °C	Nc1cccc(-n2c(=O)c(CCC(O)c3ccncc3)cc3cccnc32)c1 (stereo not drawn)
80 to 85 °C	CCOC(=O)c1cc(=O)c2c(OCC(O)COc3ccc(CC)cc3)cccc2o1 (stereo not drawn)
133 to 140 °C	O=C1C(=O)N(C2CCCCC2)C(=O)N1c1ccccc1
188 to 190 °C	CC(C)(CCOc1ccc(Cl)cc1)C(=O)Cn1cncn1
130 to 132 °C	CN1C(=O)N(CC(COc2ccc(-c3cccc(C#N)c3)cc2)N(O)C=O)C(=O)C1(C)C (stereo not drawn)
113 to 115 °C	COC(=O)C1CCCN(COS(C)(=O)=O)c2c1cc(O)c1ccccc21 (stereo not drawn)

melting point	Structure (SMILES)
129 to 130 °C	COc1ccc2c(c1)Cc1cc(F)ccc1C(=O)C2
132 to 137 °C	CN=C(NC)Nc1nc(CSCCNC2=NS(=O)(=O)N=C2NC)cs1
85 to 87 °C	CCOc1c(C(=O)c2cccs2)cnc2c1cnn2Cc1ccco1
140 to 142 °C	Cc1ccc(Cl)c(C)c1NC(=O)N=C1NC(=O)CN1C
131 to 133 °C	CC1C(=O)CSCC1=O
121 °C	Cc1nc(N(C)c2ccccc2)n2ncc(C(=O)c3ccccc3)c2n1
218 to 220 °C	CC12CCC(C(=O)O)=CC1=CCC1C2CCC2(C)C(C(=O)CCc3ccccc3)CCC12 (stereo not drawn)
68 to 69 °C	COc1ccccc1-c1cccc([N+](=O)[O-])c1
109 to 110 °C	O=S(=O)(NCCc1ccc(CN2CCCCC2)cc1)c1ccc(Br)cc1
234 to 235 °C	O=C1C(=O)c2ccccc2C2=C1SCC1(CCN(C(=O)c3ccoc3)CC1)O2
63 to 65 °C	COc1ccc(Oc2cccc(Cl)n2)cc1
> 300 °C	O=C(Nc1cc(Cl)ccc1N1CCCCC1)c1cnn2cc(O)cnc12
> 260 °C	NC(=O)C1(C2c3[nH]c4ccc(Cl)cc4c3CCN2C=O)CCC1 (stereo not drawn)
129 to 131 °C	FC(F)(F)c1ccc(-c2cc(Oc3ccc4c(C(F)(F)F)ccnc4c3)ncn2)cc1
109 to 110 °C	CCCn1ccc2c(NCCc3ccc(OC)cc3)cccc2c1=O
104 to 106 °C	CN(C)CCN(CCC12CC3CC(CC(C3)C1)C2)C(=O)NCCCc1ccncc1
101 to 104 °C	CCN(CC)C(=O)OC12C(=O)c3ccccc3C1(O)Oc1cc(C(C)C)ccc12 (stereo not drawn)
156 to 157 °C	Cc1ccn2c(=O)c(CCN3CCN(c4ccc(Cl)cc4)CC3)c(C)nc2c1
135 to 137 °C	Cc1cc(SCc2ccc(OCc3ccc(C(C)(C)C)cc3)cc2)ccc1OCC(=O)O
68 to 69 °C	N#Cc1cc(Cc2ccccc2)ccc1N
88 to 90 °C	CCCC(=O)Nc1cc(C(Cl)(Cl)Cl)ccn1
93.6 °C	CCC(=O)Oc1cc(OC)cc(OC)c1C(=O)C=Cc1ccco1

Structure (SMILES)	melting point
CN1CCN(C(=O)COc2ccc(N)cc2)CC1	71 to 73 °C
C[C@@H]1N=C(c2ccccc2Cl)c2cc(I)sc2NC1=O	235 to 237 °C
CCN(CC)C(=O)Cc1c(-c2ccc(Br)cc2)nc2c(C)cc(C)nn12	171 to 175 °C
